Experimental data reported in paper PMC2263054, “Functional evolution of the vitamin D and pregnane X receptors” (BMC Evolutionary Biology, 2007).

Assays:
[1] = target: T1, Xenopus laevis VDR (Xenopus laevis, UniProt O13124); assay: luciferase reporter transactivation assay in HepG2-NTCP cells, GAL4/xlVDR LBD chimera with tk-UAS-Luc; format: cell-based; details: HepG2-NTCP cells, luciferase reporter; unit not given; also cells saying No effect
T1 sequence (O13124 90-422): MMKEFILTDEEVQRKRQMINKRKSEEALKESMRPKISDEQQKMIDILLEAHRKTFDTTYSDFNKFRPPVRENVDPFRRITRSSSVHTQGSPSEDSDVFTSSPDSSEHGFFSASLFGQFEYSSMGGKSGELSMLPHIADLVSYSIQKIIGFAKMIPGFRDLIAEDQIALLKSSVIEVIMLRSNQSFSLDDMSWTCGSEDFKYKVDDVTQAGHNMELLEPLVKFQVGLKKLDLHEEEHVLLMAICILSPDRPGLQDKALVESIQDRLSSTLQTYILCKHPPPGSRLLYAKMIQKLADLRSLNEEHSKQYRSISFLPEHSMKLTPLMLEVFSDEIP

[2] = tested on: β-actin; assay: zebrafish in vivo liver transcription, semi-quantitative RT-PCR: β-actin
Method: (§1) Adult zebrafish were purchased from a commercial fish supplier and acclimatized for at least two-weeks in 20 L tanks with flow-through freshwater at 22°C. A single dose of 15 mg/kg of 5α-cyprinol, 5β-cyprinol 27-sulfate, 5α-scymnol or 5β-scymnol-27 sulfate, dissolved in saline, was injected intraperitoneally. A control group was injected with saline. After 48 hr, the animals were decapitated and livers of three fish (n = 5 each group) were removed, pooled and weighed, totalizing 15 fish per group. Fish were not fed throughout the experimental period. […].
(§2) To study the transcription of CYP3C1, ABCB5, PXR, GAPDH and β-actin genes in zebrafish, initial fragments of these genes were identified (Genbank: AW202769, Genbank: BQ284593, Genbank: AAM22215, Genbank: BC083506, Genbank: AF057040, respectively). The PCR primers for CYP3C1 were designed using MacVector Software and primers for MDR1 were designed using Primer 3 Software (Whitehead Institute for Biomedical Research; [75]). Primer pairs for amplifying CYP3C1 fragment were 5'-[…]-3' (sense) and 5'-[…]-3' (antisense) and for amplifying ABCB5 were 5'-[…]-3' (sense) and 5'-[…]-3' (antisense). The PCR primers for PXR were 5'-[…]-3' (sense) and 5'-[…]-3' (antisense), for amplifying GAPDH were 5'-[…]-3' (sense) and 5' […] 3' (antisense) and for β-actin were 5'-[…]-3' (sense) and 5'-[…]-3' (antisense). RNA was isolated using Trizol (Invitrogen) according to manufacturer's instructions. Purity and concentration of RNA of each sample were verified at 260 nm. The RNA integrity was checked by non-denaturing gel electrophoresis using 1 μg of total RNA in each sample.
(§3) Two micrograms of total RNA were reversed transcribed using Ominiscript RT Kit (Qiagen, Valencia, CA, USA). cDNA concentration was checked at 260 nm, and the amount adjusted to 1 μg to perform semi-quantitative RT-PCR. The expected size of the PXR, Cyp3C1, abcb5, GAPDH and β-actin fragments were 577, 477, 218, 234 and 550 bp, respectively. Biotools DNA polymerase (Biotools B&M Labs, S.A., Madrid, Spain) kit was used for the PCR reaction using a thermocycler Personal Mastercycler (Eppendörf) with the following PCR program: 5 cycles of 94°C for 5 s, 72°C for 35 s; 5 cycles of 94°C for 5 s, 70°C for 10 s, 72°C for 35 s; and 23, 24, 35, 15 and 24 cycles (PXR, Cyp3C1, abcb5, GAPDH and β-actin, respectively) of 94°C for 5 s, 61, 54, 48, 49 and 61°C for 10 s (PXR, Cyp3C1, abcb5, GAPDH and β-actin, respectively), and 72°C for 35 s. The PXR, CYP3C1, ABCB5 and GAPDH transcript levels were quantified using Gel-Quant™ (Multiplexed Biotechologies) and β-actin was used to normalize the data. The Shapiro-Wilk W test was used to evaluate normality. When data were parametric the analysis was performed using Student t test; otherwise Mann Whitney U test was applied. […]

[3] = tested on: PXR; assay: zebrafish in vivo liver transcription, semi-quantitative RT-PCR: PXR
Method: as §1, §2, §3

[4] = tested on: 6β- and 12α-hydroxylation of testosterone; assay: testosterone hydroxylation (HPLC) in African clawed frog primary hepatocytes; format: cell-based, Xenopus laevis; details: relative to vehicle control
Method: Xenopus laevis primary hepatocytes were cultured by a protocol adapted from a published report. Frogs are sacrificed with MS-222, rinsed with 70% ethanol, and the liver lobes perfused via the heart, initially with 375 mL Barth (88 mM NaCl, 1 mM K2SO4, and 10 mM HEPES-NaOH, pH 7.4) containing 0.82 mM MgCl2 and 0.1 mg/mL heparin, and then with 25 mL Barth containing 2.22 mM Ca(NO3)2, 2.74 mM CaCl2, and 200 U/mL type I collagenase (Worthington Chemicals, Lakewood, NJ). Livers are minced to fine pieces in 12.5 mL Barth-collagenase solution and then incubated for 10 min at room temperature, periodically disaggregating the liver pieces with a Pasteur pipette. The liver cells are then placed on a shaking incubator for 5 min at room temperature, followed by another 10 min of periodic pipetting to complete disaggregation. Cells are then filtered through a 130 μm Nitex nylon mesh (Fisher Scientific), following by spinning at 500 g for 5 min at 4°C. The supernatant is then aspirated and diluted to 50 mL with Barth plus MgCl2 and then allowed to settle while cooled in ice for 30 min. The supernatant is removed, and the cellular pellet is resuspended and subjected to one more round of nylon mesh filtration, dilution in Barth plus MgCl2, and settling while cooled in ice. The supernatant is removed and the remaining cells are washed once with Barth plus MgCl2 and then centrifuged at 500 g for 5 min at 4°C. The cells are then resuspended in 0.6 × Coon's Modified Ham's F-12 medium (Invitrogen) supplemented with 0.1 × Barth (88 mM NaCl, 1 mM K2SO4, 10 mM HEPES), 200 U/mL penicillin G, 100 μg/mL streptomycin sulfate, 2 mM glutamine, 0.2% glucose, and 10 μg/mL bovine insulin (Calbiochem), with the final pH adjusted to 7.5. […] Cells are cultured at 20°C in ambient atmosphere.
Testosterone metabolites were identified and quantitated by HPLC. […] The supernatant was then injected into the HPLC.

[5] = zebrafish, 15 mg/kg intraperitoneally, single dose, 48 hr

SMILES	Xenopus VDR EC50 ± SD [1]	liver transcription of β-actin [2, 5] [arbitrary units]	liver transcription of PXR [3, 5]	effect on 6β- and 12α-hydroxylation of testosterone [4]	liver transcription of β-actin ([2]; ip, 15 mg/kg, 48 h) [arbitrary units]	liver transcription of PXR ([3]; ip, 15 mg/kg, 48 h)
C[C@H](CCCC(CO)COS(=O)(=O)O)[C@H]1CC[C@H]2[C@@H]3[C@H](O)C[C@H]4C[C@H](O)CC[C@]4(C)[C@H]3C[C@H](O)[C@]12C (stereo partly drawn) [5α-Cyprinol 27-sulfate]	No effect	38.2 ± 20.7	1.50 ± 0.67 arbitrary units normalized to β-actin	neither activity was substantially increased relative to vehicle control		
C[C@H](CCCC(CO)CO)[C@H]1CC[C@H]2[C@@H]3[C@H](O)C[C@H]4C[C@H](O)CC[C@]4(C)[C@H]3C[C@H](O)[C@]12C [5α-Cyprinol, 5α-cholestan-3α,7α,12α,26,27-pentol]	No effect			neither activity was substantially increased relative to vehicle control	44.7 ± 19.6	0.58 ± 0.33 arbitrary units normalized to β-actin
